In US6914045B2, “Glycopeptide antibiotics” (Wyeth Holdings Corporation, priority 2001, dated 2005):

Legend:
[1] = system: Enterococcus faecalis (GC 6189); assay: acute lethal infection in mice; type: in vivo; conditions: female CD-1 mice, intraperitoneal challenge, intravenous 30 min. after infection, 7 day survival
How it was run: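 Intraperitoneal challenge of female CD-1 mice with a bacterial dose lethal to untreated animals within 24-48 hr; single iv treatment 30 min later, 5 mice per dose level. Survival is scored at day 7 and pooled from three experiments to give the median effective dose.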

Streptococcus sp. = assay: in vitro antibacterial evaluation, MIC by broth dilution; type: cell-based; conditions: broth dilution, 18 hours at 35° C.
How it was run: (§1)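 Read-out: the lowest concentration at which the test strain fails to grow. Serial dilutions (64-0.06 μg/mL) in Muller-Hinton II […], 5×10^5 CFU/mL inoculum, NCCLS M7-A2 procedure.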

Staphylococcus sp. = assay: as above; type: cell-based; conditions: broth dilution, 18 hours at 35° C.
How it was run: as §1

Escherichia coli = assay: as above; type: cell-based; conditions: 18 hours at 35° C.
How it was run: as §1

Enterococcus sp. = assay: as above; type: cell-based; conditions: broth dilution, 18 hours at 35° C.
How it was run: as §1

CC(c1ccccc1)C1NC(=O)CNC(=O)C(CO)NC(=O)C(C(O)C2CNC(=N)N2C2OC(CO)C(O)C(O)C2O)NC(=O)C(C(O)C2CNC(=N)N2)NC(=O)C(Cc2ccc(OC3OC(CO)C(OC4OC5COC(C6CCCC6)OC5C(O)C4O)C(O)C3O)cc2)NC1=O (stereo not drawn) [Example 117, Cyclo[glycyl-β-methylphenylalanyl-O-[4-O-[4,6-O-(cyclopentylmethylene)hexopyranosyl]-hexopyranosyl]tyrosyl-3-(2-iminoiniidazolidin-4-yl)seryl-3-(3-hexopyranosyl-2-iminoimidazolidin-4-yl)serylseryl]]
0.25 µg/mL: MIC Streptococcus agalactiae (GC 4564) (Streptococcus sp.; Streptococcus agalactiae (GC 4564)) | MIC Streptococcus pyogenes (GC 4563) (Streptococcus sp.; Streptococcus pyogenes (GC 4563)) | MIC Streptococcus pyogenes (GC 4563) (Streptococcus sp.; strain GC 4563) | MIC Streptococcus agalactiae (GC 4564) (Streptococcus sp.; strain GC 4564)
0.5 µg/mL: MIC Coagulase Negative Staphylococcus (GC 6257) (Staphylococcus sp.) | MIC Coagulase Negative Staphylococcus (GC 6257) (Staphylococcus sp.; strain GC 6257)
4 µg/mL: MIC Enterococcus avium (GC 4558) (Enterococcus sp.; Enterococcus avium (GC 4558)) | MIC Enterococcus faecalis (GC 2691) (Enterococcus sp.; Enterococcus faecalis (GC 2691)) | MIC Enterococcus faecalis (GC 3059) (Enterococcus sp.; Enterococcus faecalis (GC 3059)) | MIC Enterococcus faecalis (GC 4552) (Enterococcus sp.; Enterococcus faecalis (GC 4552)) | MIC Enterococcus faecalis (GC 4553) (Enterococcus sp.; Enterococcus faecalis (GC 4553)) | MIC Enterococcus faecalis (GC 2691) (Enterococcus sp.; strain GC 2691) | MIC Enterococcus faecalis (GC 3059) (Enterococcus sp.; strain GC 3059) | MIC Enterococcus faecalis (GC 4552) (Enterococcus sp.; strain GC 4552) | MIC Enterococcus faecalis (GC 4553) (Enterococcus sp.; strain GC 4553) | MIC Enterococcus avium (GC 4558) (Enterococcus sp.; strain GC 4558)
<0.06 µg/mL: MIC Streptococcus pneumoniae (ATCC 6301) (Streptococcus sp.; Streptococcus pneumoniae (ATCC 6301)) | MIC Streptococcus pneumoniae (GC 1894) (Streptococcus sp.; Streptococcus pneumoniae (GC 1894)) | MIC Streptococcus pneumoniae (ATCC 6301) (Streptococcus sp.; strain ATCC 6301) | MIC Streptococcus pneumoniae (GC 1894) (Streptococcus sp.; strain GC 1894)
0.12 µg/mL: MIC Streptococcus pneumoniae (GC 4565) (Streptococcus sp.; Streptococcus pneumoniae (GC 4565)) | MIC Streptococcus pneumoniae (GC 4565) (Streptococcus sp.; strain GC 4565)
0.38 mg/kg: median effective dose (ED50), Enterococcus faecalis (GC 6189) [1]
2 µg/mL: MIC Coagulase Negative Staphylococcus (GC 4551) (Staphylococcus sp.) | MIC Staphylococcus aureus (GC 1131) (Staphylococcus sp.) | MIC Staphylococcus aureus (GC 3053) (Staphylococcus sp.) | MIC Staphylococcus aureus (GC 4544) (Staphylococcus sp.) | MIC Staphylococcus aureus (GC 1131) (Staphylococcus sp.; inoculum 5×10^5 CFU/mL, strain GC 1131) | MIC Staphylococcus aureus (GC 3053) (Staphylococcus sp.; strain GC 3053) | MIC Staphylococcus aureus (GC 4544) (Staphylococcus sp.; strain GC 4544) | MIC Coagulase Negative Staphylococcus (GC 4551) (Staphylococcus sp.; strain GC 4551) | MIC Enterococcus faecalis (ATCC 29212) (Enterococcus sp.; Enterococcus faecalis (ATCC 29212)) | MIC Enterococcus faecalis (GC 2242) (Enterococcus sp.; Enterococcus faecalis (GC 2242)) | MIC Enterococcus faecalis (GC 4554) (Enterococcus sp.; Enterococcus faecalis (GC 4554)) | MIC Enterococcus faecalis (GC 6189) (Enterococcus sp.; Enterococcus faecalis (GC 6189)) | MIC Enterococcus faecium (GC 2243) (Enterococcus sp.; Enterococcus faecium (GC 2243)) | MIC Enterococcus faecium (GC 4556) (Enterococcus sp.; Enterococcus faecium (GC 4556)) | MIC Enterococcus faecium (GC 4557) (Enterococcus sp.; Enterococcus faecium (GC 4557)) | MIC Enterococcus faecalis (ATCC 29212) (Enterococcus sp.; strain ATCC 29212) | MIC Enterococcus faecalis (GC 2242) (Enterococcus sp.; strain GC 2242) | MIC Enterococcus faecium (GC 2243) (Enterococcus sp.; strain GC 2243) | MIC Enterococcus faecalis (GC 4554) (Enterococcus sp.; strain GC 4554) | MIC Enterococcus faecium (GC 4556) (Enterococcus sp.; strain GC 4556) | MIC Enterococcus faecium (GC 4557) (Enterococcus sp.; strain GC 4557) | MIC Enterococcus faecalis (GC 6189) (Enterococcus sp.; strain GC 6189)
32 µg/mL: MIC Escherichia coli (GC 4559) (Escherichia coli; strain GC 4559)
1 µg/mL: MIC Coagulase Negative Staphylococcus (GC 4547) (Staphylococcus sp.) | MIC Coagulase Negative Staphylococcus (GC 4548) (Staphylococcus sp.) | MIC Coagulase Negative Staphylococcus (GC 4549) (Staphylococcus sp.) | MIC Staphylococcus aureus (ATCC 29213) (Staphylococcus sp.) | MIC Staphylococcus aureus (GC 3051) (Staphylococcus sp.) | MIC Staphylococcus aureus (GC 4541) (Staphylococcus sp.) | MIC Staphylococcus aureus (GC 4542) (Staphylococcus sp.) | MIC Staphylococcus aureus (GC 4545) (Staphylococcus sp.) | MIC Staphylococcus aureus-SMITH (GC 4543) (Staphylococcus sp.) | MIC Staphylococcus haemolyticus (GC 4546) (Staphylococcus sp.) | MIC Staphylococcus aureus (ATCC 29213) (Staphylococcus sp.; strain ATCC 29213) | MIC Staphylococcus aureus (GC 3051) (Staphylococcus sp.; strain GC 3051) | MIC Staphylococcus aureus (GC 4541) (Staphylococcus sp.; strain GC 4541) | MIC Staphylococcus aureus (GC 4542) (Staphylococcus sp.; strain GC 4542) | MIC Staphylococcus aureus (GC 4545) (Staphylococcus sp.; strain GC 4545) | MIC Staphylococcus haemolyticus (GC 4546) (Staphylococcus sp.; strain GC 4546) | MIC Coagulase Negative Staphylococcus (GC 4547) (Staphylococcus sp.; strain GC 4547) | MIC Coagulase Negative Staphylococcus (GC 4548) (Staphylococcus sp.; strain GC 4548) | MIC Coagulase Negative Staphylococcus (GC 4549) (Staphylococcus sp.; strain GC 4549) | MIC Staphylococcus aureus-SMITH (GC 4543) (Staphylococcus sp.; strain SMITH GC 4543) | MIC Escherichia coli (GC 4560) (Escherichia coli; strain GC 4560)
64 µg/mL: MIC Escherichia coli (ATCC 25922) (Escherichia coli; strain ATCC 25922)
